Residues, ends and D or L forms follow the SMILES beside them.
How the values were obtained:
[1] = system: C. albicans (ATCC 10231); experiment: In vitro antifungal CFU assay; type: cell-based, Candida albicans; conditions: pH 5.4; for mean CFU number ± S.D.: per 0.1 mL
Method: (§1) All microbes were grown at 37 °C in Tryptic Soy Broth (TSB; Biolife, Milan, Italy) or Tryptic Soy Agar plates (TSA, Biolife, Milan, Italy). Peptides were tested at a final concentration C = 0.128, 0.064, 0.032 mg/mL, in the presence or absence of ZnCl2 or CuCl2, at a M:L molar ratio 0.9:1. Briefly, all the microbes were expanded in TSB at 37 °C under agitation for 12 h and then sub-cultured by 1:10 dilution in TSB under the same conditions until reaching OD600nm = 0.3–0.4, as measured by spectrophotometric reading using a GENESYS 10S UV–Vis spectrophotometer (Thermo Scientific, Milan, Italy), corresponding to 0.9–1.2 × 10^7 colony forming units (CFU) per mL, 1.5–2 × 10^8 CFU/mL and 2.4–3.2 × 10^8 CFU/mL, for C. albicans, S. aureus and E. coli respectively. The cultures were then centrifuged at 4500 rpm for 10 min in a SL 8 centrifuge (TX-150 Rotor) (Thermo Scientific, Milan, Italy), and the cellular pellets were washed with PBS pH 5.4. Pelletized cultures were then suspended in 10 mL of PBS pH 5.4, then the suspensions were diluted to a final concentration of 10^4 CFU/mL. Aliquots of 100 µl (corresponding to 10^3 CFU) were seeded in each well of a 96-wells plate. 3 µl of TSB at pH 5.4 were added to each well to obtain a final 1.5% TSB concentration in the culture medium. Peptides were serially diluted in PBS pH 5.4 to C = 0.257, 0.128, and 0.064 mg/mL. ZnCl2 and CuCl2 solutions were added where requested to obtain a M:L ratio 0.9:1. 100 µl of the prepared peptides ± ZnCl2/CuCl2 solutions were then added to each well, obtaining the final 0.128, 0.064 and 0.032 mg/mL peptide concentrations in a total 0.2 mL volume. PBS alone and PBS + ZnCl2/CuCl2 solutions were included as controls. The plates were incubated at 37 °C on a platform rocker with slow stirring for 3 and 24 h. At the end of the incubation times, 100 µl aliquots were taken from each sample and diluted in PBS pH 5.4 to be seeded on TSA plates. Specifically, aliquots were diluted 1:10 at 3 h, and 1:200, 1:100,000 and 1:10 at 24 h, for C. albicans, E. coli, and S. aureus respectively. After incubation for 24 h at 37 °C, grown CFUs were enumerated. Samples were assayed in triplicate in two independent experiments. Student’s t-test was used for the evaluation of significance in biological tests; a p value ≤ 0.05 was considered significant.

[2] = in vitro; conditions: human, pH 7.4
Method: Each peptide (C = 1·10^–4 M) and metal complex (metal:ligand ratio 1:1) was incubated in a sample containing 1 ml of human plasma (obtained as a pool of 40 individuals from the University Hospital of Ferrara) and 1 ml of ammonium acetate buffer (pH 7.4) at 37 °C. L-phenylalaninol is added as internal standard. At regular time intervals, 200 μl aliquots were taken and enzymatic reaction was blocked by adding 300 μl of HClO4 0.5 M. The sample was then centrifugated for 6 min at 14,000 × g. The supernatant was then filtered and analysed by HPLC. The analytical column was an Agilent Poroshell 120 SB-C18 (4.6 × 100 mm, 2.7 μm, pore size 120 Å). Flow rate = 0.5 ml/min, mobile phase H2O + 0.1% v/v TFA, linear gradient from 0 to 60% of acetonitrile + 0.1% v/v TFA over 30 min for the elution of peptides, temperature 25 °C, detection wavelength 210 nm. […] Informed consent was obtained from all subjects and/or their legal guardian(s) prior to the donation of blood samples. All experimental protocols were approved by the National Research and Research Transversal Processes boards at University of Ferrara. All methods were carried out in accordance with relevant guidelines and regulations.

[3] = system: S. aureus (ATCC 25293); experiment: In vitro anti-S. aureus CFU assay; type: cell-based, Staphylococcus aureus; conditions: 3 h, pH 5.4; for mean CFU number ± S.D.: per 0.1 mL
Method: as §1

[4] = peptide 0.032 mg/mL + CuCl2 (0.9:1), 3 h
[5] = peptide 0.032 mg/mL + CuCl2 (0.9:1), 24 h
[6] = peptide 0.032 mg/mL + ZnCl2 (0.9:1), 3 h
[7] = peptide 0.032 mg/mL + ZnCl2 (0.9:1), 24 h
[8] = peptide 0.064 mg/mL + CuCl2 (0.9:1), 3 h
[9] = peptide 0.064 mg/mL + ZnCl2 (0.9:1), 3 h
[10] = peptide 0.128 mg/mL + CuCl2 (0.9:1), 3 h
[11] = peptide alone 0.032 mg/mL, 24 h
[12] = peptide alone 0.064 mg/mL, 24 h
[13] = peptide alone 0.128 mg/mL, 24 h
[14] = peptide 0.032 mg/mL + CuCl2 (0.9:1)
[15] = peptide 0.032 mg/mL + ZnCl2 (0.9:1)
[16] = peptide 0.064 mg/mL + CuCl2 (0.9:1)
[17] = peptide 0.064 mg/mL + ZnCl2 (0.9:1)
[18] = peptide 0.128 mg/mL + CuCl2 (0.9:1)

## CC[C@H](C)[C@H](NC(=O)[C@H](C)NC(=O)[C@@H](NC(C)=O)C(C)C)C(=O)N[C@@H](C)C(=O)N[C@@H](CC(C)C)C(=O)N[C@@H](CCCCN)C(=O)N[C@@H](C)C(=O)N[C@@H](C)C(=O)N[C@@H](Cc1c[nH]cn1)C(=O)N[C@@H](Cc1ccc(O)cc1)C(=O)N[C@@H](Cc1c[nH]cn1)C(=O)N[C@H](C(=O)N[C@@H](Cc1c[nH]cn1)C(=O)N[C@@H](CCCCN)C(=O)N[C@@H](CCC(=O)O)C(N)=O)[C@@H](C)O [L2, Ac-VAIALKAAHYHTHKE-NH2] (Ac-VAIALKAAHYHTHKE-NH2)
[1]; [4]
  CFU decrease/increase with respect to untreated controls: +9.3%
  mean CFU number ± S.D.: 153 ± 26 CFU
[1]; [5]
  CFU decrease/increase with respect to untreated controls: +16%
  mean CFU number ± S.D.: 1,908 ± 83 CFU
[1]; [6]
  CFU decrease/increase with respect to untreated controls: -7.8%
  mean CFU number ± S.D.: 129 ± 17 CFU
[1]; [7]
  CFU decrease/increase with respect to untreated controls: +14%
  mean CFU number ± S.D.: 1,873 ± 83 CFU
[1]; [8]
  CFU decrease/increase with respect to untreated controls: +29%
  mean CFU number ± S.D.: 180 ± 81 CFU
[1]; peptide 0.064 mg/mL + CuCl2 (0.9:1), 24 h
  mean CFU number ± S.D.: 1,360 ± 140 CFU
[1]; [9]
  CFU decrease/increase with respect to untreated controls: -44%
  mean CFU number ± S.D.: 79 ± 18 CFU
[1]; peptide 0.064 mg/mL + ZnCl2 (0.9:1), 24 h
  mean CFU number ± S.D.: 881 ± 99 CFU
[1]; [10]
  CFU decrease/increase with respect to untreated controls: -7%
  mean CFU number ± S.D.: 130 ± 29 CFU
[1]; peptide 0.128 mg/mL + CuCl2 (0.9:1), 24 h
  mean CFU number ± S.D.: 1,256 ± 129 CFU
[1]; peptide 0.128 mg/mL + ZnCl2 (0.9:1), 3 h
  mean CFU number ± S.D.: 36 ± 15 CFU
[1]; peptide 0.128 mg/mL + ZnCl2 (0.9:1), 24 h
  mean CFU number ± S.D.: 50 ± 29 CFU
[1]; peptide alone 0.032 mg/mL, 3 h
  CFU decrease/increase with respect to untreated controls: +51%
  mean CFU number ± S.D.: 211 ± 25 CFU
[1]; [11]
  CFU decrease/increase with respect to untreated controls: -5%
  mean CFU number ± S.D.: 1,563 ± 72 CFU
[1]; peptide alone 0.064 mg/mL, 3 h
  CFU decrease/increase with respect to untreated controls: +20%
  mean CFU number ± S.D.: 168 ± 14 CFU
[1]; [12]
  CFU decrease/increase with respect to untreated controls: -10%
  mean CFU number ± S.D.: 1,480 ± 198 CFU
[1]; peptide alone 0.128 mg/mL, 3 h
  CFU decrease/increase with respect to untreated controls: +5.7%
  mean CFU number ± S.D.: 148 ± 24 CFU
[1]; [13]
  CFU decrease/increase with respect to untreated controls: +6%
  mean CFU number ± S.D.: 1,732 ± 249 CFU
[2]
  half-life: ~1.13 h
[3]; [14]
  CFU decrease/increase with respect to untreated controls: -17%
  mean CFU number ± S.D.: 129± 41 CFU
[3]; [15]
  CFU decrease/increase with respect to untreated controls: 0%
  mean CFU number ± S.D.: 177 ± 11 CFU
[3]; [16]
  CFU decrease/increase with respect to untreated controls: -18%
  mean CFU number ± S.D.: 127 ± 30 CFU
[3]; [17]
  CFU decrease/increase with respect to untreated controls: -17%
  mean CFU number ± S.D.: 147 ± 16 CFU
[3]; [18]
  CFU decrease/increase with respect to untreated controls: +6%
  mean CFU number ± S.D.: 194 ± 4 CFU
[3]; peptide 0.128 mg/mL + ZnCl2 (0.9:1)
  mean CFU number ± S.D.: 82 ± 16 CFU
[3]; peptide alone 0.032 mg/mL
  CFU decrease/increase with respect to untreated controls: -12%
  mean CFU number ± S.D.: 157 ± 35 CFU
[3]; peptide alone 0.064 mg/mL
  CFU decrease/increase with respect to untreated controls: +14%
  mean CFU number ± S.D.: 201 ± 40 CFU
[3]; peptide alone 0.128 mg/mL
  CFU decrease/increase with respect to untreated controls: +21%
  mean CFU number ± S.D.: 213 ± 23 CFU

Source: article PMC10600247, “Impact of C- and N-terminal protection on the stability, metal chelation and antimicrobial properties of calcitermin” (Scientific Reports, 2023)
